# Laboratory results published in ChEMBL document CHEMBL6153135, “Rational Design of a Potent, Selective, and Metabolically Stable CDK9 Inhibitor to Counteract Osimertinib Resistance through Mcl-1 Suppression and Enhanced BRD4 Co-Targeting” (J Med Chem, 2025).
# pIC50: −log10 of the molar value. The source made the active and inactive calls. The rule behind the calls is not given here.
# Columns and labels:
# [1] = Metabolic stability in human liver microsomes assessed as half life measured for 5 to 60 mins by LC-MS/MS analysis; assay type: ADME, Microsome; details: time 5-60 min
# [2] = Metabolic stability in rat liver microsomes assessed as half life measured for 5 to 60 mins by LC-MS/MS analysis; assay type: ADME, Microsome; details: time 5-60 min
# NCI-H1975 [3] = assay: Anti-proliferative activity against human NCI-H1975 cells assessed as cell inhibition measured after 72 hrs by MTT assay; assay type: functional, cell-based; details: NCI-H1975, 72 h
# [4] = Anti-proliferative activity against human Osimertinib-resistant HCC827 cells assessed as cell inhibition measured after 72 hrs by MTT assay; assay type: functional, cell-based
# [5] = Solubility of compound in PBS at pH 6.0 incubated for 2 hrs by HPLC analysis; assay type: physicochemical
# CDK9/cyclin T1 = CDK9/cyclin T1 (Homo sapiens, UniProt P50750); assay: Inhibition of CDK9/cyclin T1 (unknown origin) preincubated for 10 mins followed by substrate/ATP measured after 60 mins by ADP-Glo assay; assay type: protein-complex assay
# CDK9/cyclin T1, sequence (O60563 whole entry): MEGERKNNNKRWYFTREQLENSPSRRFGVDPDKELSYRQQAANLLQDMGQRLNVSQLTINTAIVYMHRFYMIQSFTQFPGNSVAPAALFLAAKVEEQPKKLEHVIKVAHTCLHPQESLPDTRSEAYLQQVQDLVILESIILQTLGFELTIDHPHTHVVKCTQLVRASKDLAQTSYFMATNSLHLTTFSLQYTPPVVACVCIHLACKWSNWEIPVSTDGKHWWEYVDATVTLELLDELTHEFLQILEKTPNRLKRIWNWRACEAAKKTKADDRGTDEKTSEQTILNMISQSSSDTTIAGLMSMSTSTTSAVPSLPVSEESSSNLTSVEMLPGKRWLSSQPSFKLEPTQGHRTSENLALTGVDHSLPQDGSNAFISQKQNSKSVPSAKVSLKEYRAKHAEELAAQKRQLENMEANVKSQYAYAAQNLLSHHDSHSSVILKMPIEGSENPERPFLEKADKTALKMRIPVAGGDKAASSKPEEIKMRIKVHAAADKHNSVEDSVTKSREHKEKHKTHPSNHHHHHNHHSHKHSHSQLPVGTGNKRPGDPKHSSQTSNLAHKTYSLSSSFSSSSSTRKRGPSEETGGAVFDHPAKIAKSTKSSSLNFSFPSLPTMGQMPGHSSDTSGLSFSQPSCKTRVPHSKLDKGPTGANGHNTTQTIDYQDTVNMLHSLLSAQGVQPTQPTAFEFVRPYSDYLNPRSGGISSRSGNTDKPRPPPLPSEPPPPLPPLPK
# CDK9/cyclin T1, sequence (P50750 whole entry): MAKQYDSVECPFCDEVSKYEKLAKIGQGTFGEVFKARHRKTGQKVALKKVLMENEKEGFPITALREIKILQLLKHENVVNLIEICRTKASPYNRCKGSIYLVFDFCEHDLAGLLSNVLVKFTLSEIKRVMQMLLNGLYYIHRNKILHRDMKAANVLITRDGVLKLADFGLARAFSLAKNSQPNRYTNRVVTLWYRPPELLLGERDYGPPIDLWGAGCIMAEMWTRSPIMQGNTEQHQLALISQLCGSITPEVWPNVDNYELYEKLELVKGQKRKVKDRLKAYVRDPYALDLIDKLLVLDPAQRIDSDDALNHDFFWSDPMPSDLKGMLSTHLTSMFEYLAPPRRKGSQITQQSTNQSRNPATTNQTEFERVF
# CDK2/Cyclin A2 = CDK2/Cyclin A2 (Homo sapiens, UniProt P24941); assay: Inhibition of CDK2/Cyclin A2 (unknown origin) preincubated for 10 mins followed by substrate/ATP measured after 60 mins by ADP-Glo assay; assay type: protein-complex assay
# [6] = test system: Osimertinib-resistant NCI-H1975 cell; assay: Anti-proliferative activity against human Osimertinib-resistant NCI-H1975 cells assessed as cell inhibition measured after 72 hrs by MTT assay; assay type: functional, cell-based
# HCC827 = assay: Anti-proliferative activity against human HCC827 cells assessed as cell inhibition measured after 72 hrs by MTT assay; assay type: functional, cell-based; details: HCC827, 72 h
# NCI-H1299 = assay: Anti-proliferative activity against human NCI-H1299 cells assessed as cell inhibition measured after 72 hrs by MTT assay; assay type: functional, cell-based; details: NCI-H1299, 72 h
# PC-9 = assay: Anti-proliferative activity against human PC-9 cells assessed as cell inhibition measured after 72 hrs by MTT assay; assay type: functional, cell-based; details: PC-9, 72 h
# NCI-H596 = assay: Anti-proliferative activity against human NCI-H596 cells assessed as cell inhibition measured after 72 hrs by MTT assay; assay type: functional, cell-based; details: NCI-H596, 72 h
# 16HBE14o- = assay: Anti-proliferative activity against human 16-HBE cells assessed as cell inhibition measured after 72 hrs by MTT assay; assay type: functional, cell-based
# [7] = test system: Osimertinib-resistant NCI-H1975 cell; assay: Induction of apoptosis in human Osimertinib-resistant NCI-H1975 cells assessed as viable cells at 0.5 uM incubated for 16 hrs by Annexin V-FITC/PI staining based flow cytometry (reference value: 89.4 %); assay type: functional; details: read-out: Activity
# [8] = test system: Osimertinib-resistant NCI-H1975 cell; assay: Induction of apoptosis in human Osimertinib-resistant NCI-H1975 cells assessed as early apoptotic cells at 0.5 uM incubated for 16 hrs by Annexin V-FITC/PI staining based flow cytometry (reference value: 4.39 %); assay type: functional
# [9] = test system: Osimertinib-resistant NCI-H1975 cell; assay: Induction of apoptosis in human Osimertinib-resistant NCI-H1975 cells assessed as late apoptotic cells at 0.5 uM incubated for 16 hrs by Annexin V-FITC/PI staining based flow cytometry (reference value: 5.92 %); assay type: functional
# [10] = test system: Osimertinib-resistant NCI-H1975 cell; assay: Induction of apoptosis in human Osimertinib-resistant NCI-H1975 cells assessed as necrotic cells at 0.5 uM incubated for 16 hrs by Annexin V-FITC/PI staining based flow cytometry (reference value: 0.33 %); assay type: functional
# [11] = test system: Osimertinib-resistant HCC827 cell; assay: Antitumor activity against human Osimertinib-resistant HCC827 cells xenografted in BALB-c nude mouse assessed as tumor growth inhibition at 30 mg/kg, ip; assay type: functional, organism-based
# NCI-H1975 [12] = assay: Antitumor activity against human NCI-H1975 cells xenografted in BALB-c nude mouse assessed as tumor growth inhibition at 30 mg/kg, ip; assay type: functional, organism-based
# [13] = Toxicity in BALB-c mouse xenografted with human NCI-H1975 cells assessed as decrease in body weight at 30 mg/kg, ip; assay type: organism-based; details: in vivo
# [14] = Toxicity in BALB-c mouse xenografted with human Osimertinib-resistant HCC827 cells assessed as decrease in body weight at 30 mg/kg, ip; assay type: organism-based; details: in vivo
SMILES,half-life [1] [min],half-life [2] [min],pIC50 (NCI-H1975 [3]),pIC50 [4],pIC50 (CDK9/cyclin T1),pIC50 (CDK2/Cyclin A2),pIC50 [6],also measured
O=C(NCCN1CCOCC1)c1ccc2cc1OCCCCCCOc1cc(ccc1F)-c1nc(ncc1F)N2,10.7,6.8,6.74,6.62,,,,solubility at 2 h [5]: 17 µg/mL
CN1CCN(CCNC(=O)c2ccc3cc2OCCCCCCOc2cc(ccc2F)-c2nc(ncc2F)N3)CC1,13.2,9.5,,,,,,
O=C(NCCN1CCOCC1)c1ccc2cc1OCCCCCCOc1cncc(c1)-c1nc(ncc1F)N2,,,7.15,,8.82,7.65,,solubility at 2 h [5]: 39 µg/mL
COc1cc(F)ccc1-c1cc(Nc2cc(CS(C)(=N)=O)ccn2)ncc1F (stereo not given) [ENITOCICLIB],,,6.85,6.89,,,6.92,pIC50 (HCC827): 6.89; pIC50 (NCI-H1299): 6.89; pIC50 (PC-9): 6.92; pIC50 (NCI-H596): 7.05; pIC50 (16HBE14o-): 6.39; viability at 0.5 µM [7]: 76.9%; Activity [8]: 11.8%; Activity [9]: 10.1%; Activity [10]: 1.26%
Cc1sc2c(c1C)C(c1ccc(Cl)cc1)=N[C@@H](CC(=O)OC(C)(C)C)c1nnc(C)n1-2,,,5.40,5.05,,,5.64,pIC50 (HCC827): 5.01; inhibition [11]: inactive; inhibition (NCI-H1975 [12]): inactive; Activity [13]: Non-toxic; Activity [14]: Non-toxic
O=C(NC1CCN(C2CC2)CC1)c1ccc2cc1OCCCCCCn1cc(cn1)-c1nc(ncc1F)N2,,,,,9.00,7.94,,
O=C(NCCN1CCCC1)c1ccc2cc1OCCCCCCOc1cc(ccc1F)-c1nc(ncc1F)N2,37.7,36.7,6.54,6.85,8.77,7.74,7.00,
O=C(NC1CCN(C2CCOC2)CC1)c1ccc2cc1OCCCCCCOc1cc(ccc1F)-c1nc(ncc1F)N2 (stereo not given),55,25.2,6.42,6.52,9.00,6.82,6.96,
CN1CCC(CNC(=O)c2ccc3cc2OCCCCCCOc2cc(ccc2F)-c2nc(ncc2F)N3)CC1,112,12.4,,,8.51,7.41,6.60,
CN1CCC(NC(=O)c2ccc3cc2OCCCCCCOc2cc(ccc2F)-c2nc(ncc2F)N3)CC1,66.6,42.5,,,,,,
CC(C)N1CCC(NC(=O)c2ccc3cc2OCCCCCCOc2cc(ccc2F)-c2nc(ncc2F)N3)CC1,161,8.6,6.43,,8.64,7.17,6.44,
O=C(CN1CCOCC1)NCc1ccc2cc1OCCCCCCOc1cc(ccc1F)-c1nc(ncc1F)N2,,,6.23,,8.29,6.70,,solubility at 2 h [5]: 20 µg/mL
O=C(NC1CCN(C2CC2)CC1)c1ccc2cc1OCCCCCCOc1cc(ccc1F)-c1nc(ncc1F)N2,21.4,64.7,6.49,6.68,8.47,6.43,6.64,
O=C(NC1CCN(C2CCOC2)CC1)c1ccc2cc1OCCCCCCn1cc(cn1)-c1nc(ncc1F)N2 (stereo not given),,,7.05,7.10,8.89,7.85,,solubility at 2 h [5]: 35 µg/mL
O=C(NC1CCN(C2CCOCC2)CC1)c1ccc2cc1OCCCCCCOc1cc(ccc1F)-c1nc(ncc1F)N2,301,,,,,,,
O=C(NC1CCN(C2CCOC2)CC1)c1ccc2cc1OCCCCCCOc1cc(ccc1F)-c1ncnc(n1)N2 (stereo not given),,,6.96,6.46,8.21,6.54,,solubility at 2 h [5]: 27 µg/mL
CC(=O)N1CCC(NC(=O)c2ccc3cc2OCCCCCCOc2cncc(c2)-c2nc(ncc2F)N3)CC1,,,,7.40,9.00,7.69,,
COC[C@@H](C)NC(=O)c1ccc2cc1OCCCCCCOc1cc(ccc1F)-c1nc(ncc1F)N2,11.3,123,6.52,6.55,8.60,< 6.30,6.66,
CCN1CCC(NC(=O)c2ccc3cc2OCCCCCCOc2cc(ccc2F)-c2nc(ncc2F)N3)CC1,257,5.4,6.55,,8.64,7.16,6.55,
O=C(NC1CCN(C2CCOC2)CC1)c1ccc2cc1OCCCCCCOc1cncc(c1)-c1nc(ncc1F)N2 (stereo not given),,,7.22,7.40,8.96,7.74,,solubility at 2 h [5]: 58 µg/mL
O=C(NC1CCN(C2CC2)CC1)c1ccc2cc1OCCCCCCOc1cncc(c1)-c1nc(ncc1F)N2,,,,,8.85,7.55,,
